Source: ChEMBL document CHEMBL2390897, “3-Anhydro-6-hydroxy-ophiobolin A, a new sesterterpene inhibiting the growth of methicillin-resistant Staphylococcus aureus and inducing the cell death by apoptosis on K562, from the phytopathogenic fungus Bipolaris oryzae” (Bioorg Med Chem Lett, 2013)
≈ marks a conversion by molar mass, not a printed value.

Tested on: Mycobacterium tuberculosis
Assay: Antimicrobial activity against Bacille Calmette-Guerin
Type: functional
Settings: variant bovis BCG

Structure (SMILES)	MIC [µg/mL]
CC(C)=C[C@H]1C[C@H](C)[C@]2(CC[C@]3(C)C[C@@H]4C(C)=CC(=O)[C@]4(O)/C(C=O)=C\C[C@H]32)O1	12.5 (≈ 31.4 µM)
NNC(=O)c1ccncc1 [ISONIAZID]	0.05 (≈ 0.365 µM)
CC(C)=C[C@H]1C[C@H](C)[C@]2(CC[C@]3(C)C[C@@H]4C(C)=CC(=O)[C@H]4/C(C=O)=C\C[C@H]32)O1 [3-ANHYDRO-6-EPI-OPHIOBOLIN A]	> 100
CC(C)=C[C@H]1C[C@H](C)[C@]2(CC[C@]3(C)C[C@@H]4C(C)=CC(=O)[C@@H]4/C(C=O)=C\C[C@H]32)O1	> 100
